Experimental data as given in US9796672B2, “Isoindoline compositions and methods for treating neurodegenerative disease” (Cognition Therapeutics, Inc., priority 2014, dated 2017).

Key:
potassium channel hERG = potassium channel hERG (Homo sapiens (Human), UniProt Q12809); experiment: In vitro toxicity, hERG inhibition; type: biochemical
Protocol: In vitro toxicity for Test Compounds is tested in a number of standard assays.

[1] = Mouse liver microsome (MLM) stability; type: in vitro ADME; settings: mouse, microsomes
Protocol: A first pharmacokinetic study was performed in microsomes of mice mouse liver microsomes, MLM) by a commercial contract research organization. The studies were performed according to Obach, R. S et al. (1997) J. Pharmacol. Exp. Ther., 283: 46-58, which is incorporated herein by reference.

[2] = test system: Abeta oligomer-induced membrane trafficking deficits in primary hippocampal neurons; experiment: Membrane trafficking/exocytosis (MTT) assay; settings: read-out: Membrane Trafficking EC50; compound dosed prior to Abeta oligomer addition
Protocol: Primary hippocampal neurons from E18 Sprague-Dawley rat embryos were plated at optimized concentrations in 384 well plates in NB media (Invitrogen). Neurons were maintained in cultures for 3 weeks, with twice weekly feeding of NB media with N2 supplement (Invitrogen).
MTT reagent (3-(4,5-dimethylthizaol-2yl)-2,5diphenyl tetrazolium bromide) (Roche Molecular Biochemicals) was reconstituted in phosphate buffered saline to 5 mg/mL. 10 μL of MTT labeling reagent is added to each well and incubated at 37° C. for 1 h, then imaged. Exocytosis was assessed by automated microscopy and image processing to quantify the amount of endocytosed and exocytosed formazan.
Each assay plate was formatted so that compounds are tested with and without Abeta oligomer on each plate. […] Reduced formazan was first visible in intracellular vesicles. […] The dye precipitated in the aqueous environment of the culture and formed needle-shaped crystals on the surface of the neuron.

Sigma-2 receptor = Sigma-2 receptor competitive radioligand binding assay; set-up: species or system rat; settings: read-out: Sigma-2 Receptor Affinity, Ki
Protocol: Radioligand binding assays for Sigma-1 receptors and Sigma-2 receptors were carried out by a commercial contract research organization. For Sigma-1 binding, various concentrations of test compounds from 100 μM to 1 nM were used to displace 8 nM [^3H](+)pentazocine from endogenous receptors on Jurkat cell membranes (Ganapathy M E et al. 1991, J Pharmacol. Exp. Ther. 289:251-260). 10 μM Haloperidol was used to define non-specific binding. For Sigma-2 receptors various concentrations of test compounds from 100 μM to 1 nM were used to displace 5 nM [^3H] […] (Bowen W D, et al. 1993, Mol. Neuropharmcol 3:117-126). 10 μM Haloperidol was used to define non-specific binding. Reactions were terminated by rapid filtration through Whatman GF/C filters using a Brandel 12R cell harvester followed by two washes with ice-cold buffer. Radioactivity on the dried filter discs was measured using a liquid scintillation analyzer (Tri-Carb 2900TR; PerkinElmer Life and Analytical Sciences). The displacement curves were plotted and the Ki values of the test ligands for the receptor subtypes were determined using GraphPad Prism (GraphPad Software Inc., San Diego, Calif.). The percentage specific binding was determined by dividing the difference between total bound (disintegrations per minute) and nonspecific bound (disintegrations per minute) by the total bound (disintegrations per minute).
The affinity of candidate sigma-2 ligand compounds at sigma-1 and sigma-2 receptors was also determined by displacement of different known labeled sigma-2 or sigma-1 ligands. Filtration assays were conducted according the previously published procedure (Xu, et al., 2005). Test compounds were dissolved in N,N-Dimethylformamide (DMF), dimethyl sulfoxide (DMSO) or ethanol and then diluted in 50 mM Tris-HCl pH 7.4 buffer containing 150 mM NaCl and 100 mM EDTA. Membrane homogenates were made from guinea pig brain for sigma-1 binding assay and rat liver for sigma-2 binding assay. Membrane homogenates were diluted with 50 mM Tris-HCl buffer, pH 8.0 and incubated at 25° C. in a total volume of 150 uL in 96 well plates with the radioligand and test compounds with concentrations ranging from 0.1 nM to 10 uM. After incubation was completed, the reactions were terminated by the addition of 150 uL of ice-cold wash buffer (10 mM Tris HCl, 150 mM NaCl, pH 7.4) using a 96 channel transfer pipette (Fisher Scientific, Pittsburgh, Pa.) and the samples harvested and filtered rapidly through 96 well fiber glass filter plate (Millipore, Billerica, Mass.) that had been presoaked with 100 uL of 50 mM Tris-HCl buffer. Each filter was washed four times with 200 uL of ice-cold wash buffer (10 mM Tris-HCl, 150 mM NaCl, pH 7.4). A Wallac 1450 MicroBeta liquid scintillation counter (Perkin Elmer, Boston, Mass.) was used to quantitate the bound radioactivity.
Nonspecific binding was determined from samples that contained 10 uM of cold haloperidol.
The binding affinity, Ki values was calculated using the method of Cheng and Prusoff.

neuronal cultures = experiment: Functional neuronal phenotype in neuronal cultures; type: cell-based; set-up: key: Antagonist: antagonists (block Abeta signaling); Agonist: agonists (block Abeta signaling with U-shaped dose-response curve and toxicity at high doses); Inactive: inactive (no effect in neuronal cultures)
Protocol: Neuronal cultures are treated with various concentrations of sigma compounds for 24 hours and nuclear intensity compared to vehicle is measured.

Sigma-1 receptor = Sigma-1 receptor competitive radioligand binding assay; settings: read-out: Sigma-1 Receptor Affinity, Ki
Protocol: Radioligand binding assays for Sigma-1 receptors and Sigma-2 receptors were carried out by a commercial contract research organization. For Sigma-1 binding, various concentrations of test compounds from 100 μM to 1 nM were used to displace 8 nM [^3H](+)pentazocine from endogenous receptors on Jurkat cell membranes (Ganapathy M E et al. 1991, J Pharmacol. Exp. Ther. 289:251-260). 10 μM Haloperidol was used to define non-specific binding. […] 10 μM Haloperidol was used to define non-specific binding. Reactions were terminated by rapid filtration through Whatman GF/C filters using a Brandel 12R cell harvester followed by two washes with ice-cold buffer. Radioactivity on the dried filter discs was measured using a liquid scintillation analyzer (Tri-Carb 2900TR; PerkinElmer Life and Analytical Sciences). The displacement curves were plotted and the Ki values of the test ligands for the receptor subtypes were determined using GraphPad Prism (GraphPad Software Inc., San Diego, Calif.). The percentage specific binding was determined by dividing the difference between total bound (disintegrations per minute) and nonspecific bound (disintegrations per minute) by the total bound (disintegrations per minute).

potassium channel hERG, sequence (Q12809 whole entry): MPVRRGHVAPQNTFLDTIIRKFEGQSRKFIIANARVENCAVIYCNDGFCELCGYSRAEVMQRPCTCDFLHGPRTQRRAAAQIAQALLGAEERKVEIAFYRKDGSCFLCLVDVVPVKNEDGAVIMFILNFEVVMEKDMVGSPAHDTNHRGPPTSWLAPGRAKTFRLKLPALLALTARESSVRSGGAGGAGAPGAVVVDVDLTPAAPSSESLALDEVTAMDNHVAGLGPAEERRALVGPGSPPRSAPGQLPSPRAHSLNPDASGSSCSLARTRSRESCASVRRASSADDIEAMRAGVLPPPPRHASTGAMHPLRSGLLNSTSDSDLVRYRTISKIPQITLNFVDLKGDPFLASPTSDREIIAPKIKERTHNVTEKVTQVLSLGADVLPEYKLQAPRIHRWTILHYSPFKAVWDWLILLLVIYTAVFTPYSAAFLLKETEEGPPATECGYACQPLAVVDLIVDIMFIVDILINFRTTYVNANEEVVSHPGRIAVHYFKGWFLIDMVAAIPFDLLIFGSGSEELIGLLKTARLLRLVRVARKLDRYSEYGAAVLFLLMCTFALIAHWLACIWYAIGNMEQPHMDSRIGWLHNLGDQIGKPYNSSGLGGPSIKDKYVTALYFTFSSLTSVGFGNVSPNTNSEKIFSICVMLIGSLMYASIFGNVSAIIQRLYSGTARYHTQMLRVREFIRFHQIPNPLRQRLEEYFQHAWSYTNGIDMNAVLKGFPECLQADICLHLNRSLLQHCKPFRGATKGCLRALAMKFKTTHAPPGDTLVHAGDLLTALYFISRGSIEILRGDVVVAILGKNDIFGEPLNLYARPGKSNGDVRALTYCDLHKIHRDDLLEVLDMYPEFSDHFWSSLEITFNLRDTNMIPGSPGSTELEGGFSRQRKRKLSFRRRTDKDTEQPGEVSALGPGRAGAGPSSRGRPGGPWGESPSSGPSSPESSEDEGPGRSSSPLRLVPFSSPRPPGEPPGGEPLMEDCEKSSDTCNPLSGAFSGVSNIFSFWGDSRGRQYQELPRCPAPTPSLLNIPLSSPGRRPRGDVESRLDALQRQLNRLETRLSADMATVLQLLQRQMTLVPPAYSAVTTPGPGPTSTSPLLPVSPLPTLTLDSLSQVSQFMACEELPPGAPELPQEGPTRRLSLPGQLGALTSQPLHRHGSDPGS

Structure (SMILES) | IC50 (potassium channel hERG) [nM] | Mouse liver microsomes, MLM t½ [1] [min] | EC50 [2] [nM] | Ki (Sigma-2 receptor) [nM] | neuronal phenotype (neuronal cultures) | Ki (Sigma-1 receptor) [nM]
CC(C)Oc1cc(CCC(C)(C)N2Cc3cccc(F)c3C2)ccc1O [compound 28] | 9600 | 4 | 70 to 80 | 11 | Antagonist | 120
C[C@H](CCc1ccc(Cl)c(Cl)c1)N1Cc2ccc3ccccc3c2C1 [compound 19] | 98000 | 25 | 270 | 1.8 | Weak | 69
C[C@H](CCc1ccc(Cl)c(Cl)c1)N1Cc2cccc(F)c2C1 [compound 9] | 6700 | 12 | 220 | 3.6 | Antagonist | 17
CC(C)Oc1ccc(CC[C@@H](C)N2Cc3cc4c(cc3C2)OCO4)cc1OC(C)C [compound 40] | 350 | 6 | – | 8.9 | – | 7.8
CC(C)Oc1cc(CC[C@@H](C)N2Cc3cccc(F)c3C2)ccc1O [compound 26] | 3700 | 4 | > 20000 | 41 | Inactive | 7.9
CC(C)Oc1cc(CCC(C)(C)N2Cc3cc4c(cc3C2)OCO4)ccc1O [compound 29] | 540 | 6 | > 20000 | 13 | Inactive/ | 47
C[C@H](CCc1ccc(OC(=O)N(C)C)c(OC(F)(F)F)c1)N1Cc2ccc(F)cc2C1 [compound 43] | 670 | 5 | – | 140 | – | 380
COc1cc(CC[C@@H](C)N2Cc3cccc(S(C)(=O)=O)c3C2)ccc1O [compound 65] | 26000 | 41 | – | 190 | Neuroactive | 1300
CC(C)(CCc1ccc(O)c(OC(F)(F)F)c1)N1Cc2ccc(S(C)(=O)=O)cc2C1 [compound 61] | 790 | 114 | < 20 | 6.9 | Antagonist | 33
C[C@H](CCc1ccc(O)c(OC(C)(C)C)c1)N1Cc2c(F)ccc(F)c2C1 [60A] | 100000 | 5 | > 20000 | 1600 | Antagonist | 410
CC(C)(C)Oc1cc(CCC(C)(C)N2Cc3cccc(C(=O)O)c3C2)ccc1O [compound 75] | 100000 | 508 | > 20000 | > 10000 | Inactive | 10000
CC(C)COc1cc(CCC(C)(C)N2Cc3ccc(S(C)(=O)=O)cc3C2)ccc1O [compound 87] | 570 | 86 | – | 1.1 | – | 69
C[C@H](CCc1ccc(O)c(OC(F)(F)F)c1)N1Cc2ccc(F)cc2C1 [compound 31] | 1900 | 6 | < 250 | 58 | Antagonist | 3.7
COc1cc(CCC(C)(C)N2Cc3cccc(C(=O)N4CCOCC4)c3C2)ccc1O [compound 80] | 7400 | 45 | 100000 | 1400 | Inactive | –
COc1cc(CC[C@@H](C)N2Cc3ccc(F)cc3C2)ccc1OCCO [compound 30] | 4700 | 126 | 300 | 910 | Antagonist | 220
COc1cc(CCC(C)(C)N2Cc3cccc(C(=O)N4CCN(C)CC4)c3C2)ccc1O [compound 82] | 52000 | 27 | 100000 | – | Inactive | –
COc1cc(CCC(C)(C)N2Cc3cccc(C(=O)N(C)CCO)c3C2)ccc1O [compound 85] | 33000 | 194 | – | 360 | – | 10000
CC(C)Oc1cc(CCC(C)(C)N2Cc3ccc(S(C)(=O)=O)cc3C2)ccc1O [compound 70] | 3100 | 79 | – | 9 | Inactive | 50
COc1cc(CC[C@@H](C)N2Cc3cccc(F)c3C2)ccc1OCCO [compound 51] | 1200 | 66 | – | 800 | Neuroactive | 77
COCCN(C)C(=O)c1cccc2c1CN(C(C)(C)CCc1ccc(O)c(OC)c1)C2 [compound 86] | 5100 | 19 | – | 10000 | – | 10000

Structure (SMILES) | IC50 (potassium channel hERG) [nM] | Mouse liver microsomes, MLM t½ [1] [min] | EC50 [2] [nM] | Ki (Sigma-2 receptor) [nM] | neuronal phenotype (neuronal cultures) | Ki (Sigma-1 receptor) [nM]
COc1cc(CCC(C)(C)N2Cc3cccc(C(=O)N(C)CCN(C)C)c3C2)ccc1O [compound 81] | 10000 | 88 | 100000 | – | Inactive | –
CC(C)(CCc1ccc(O)c(OC(F)(F)F)c1)N1Cc2c(F)ccc(F)c2C1 [compound 55] | 100000 | 34 | – | 310 | – | 360
CC(C)(C)Oc1cc(CCC(C)(C)N2Cc3c(F)ccc(F)c3C2)ccc1O [compound 74] | 100000 | 21 | 300 | 550 | Antagonist | 2300
CC(C)Oc1cc(CC[C@@H](C)N2Cc3ccc(S(C)(=O)=O)cc3C2)ccc1O [compound 69] | 9500 | 75 | – | 76 | Inactive | 27
Cc1ccc2c(c1)CN([C@H](C)CCc1ccc(Cl)c(Cl)c1)C2 [compound 13] | 250 | 3 | 300 | – | Antagonist | –
COc1cc(CCC(C)(C)N2Cc3cccc(F)c3C2)ccc1O [compound 53] | 2800 | 21 | > 20000 | 17 | Inactive | 110
COC[C@H](CCc1ccc(Cl)c(Cl)c1)N1Cc2ccc(F)cc2C1 [compound 46] | 1600 | 5 | – | 160 | Inactive | 94
COc1cc2c(cc1OC)CN([C@H](C)CCc1ccc(Cl)c(Cl)c1)C2 [compound 11] | 290 | 61 | 700 | 0.44 | Antagonist | 14
CC(C)Oc1cc(CC[C@@H](C)N2Cc3ccc(F)cc3C2)ccc1O [compound 37] | 480 | 5 | – | 140 | – | 9.1
COc1cc2c(cc1OC)CN([C@@H](C)CCc1ccc(Cl)c(Cl)c1)C2 [compound 20] | 660 | 43 | 67 to 600 | 0.67 | – | 0.57
COc1cc(CCC(C)(C)N2Cc3ccc(F)cc3C2)ccc1OC(=O)N(C)C [compound 50] | 4400 | 33 | – | 37 | weak and antagonist | 750
COc1cc(CC[C@@H](C)N2Cc3ccc(Cl)cc3C2)ccc1O [compound 1] | 430 | 11 | – | 25 | – | 31
C[C@H](CCc1ccc(O)c(OC(C)(C)C)c1)N1Cc2ccc(S(C)(=O)=O)cc2C1 [compound 63] | 11000 | 31 | – | 380 | Inactive | 17
CC(C)(CCc1ccc(O)c(OC(F)(F)F)c1)N1Cc2cccc(S(C)(=O)=O)c2C1 [compound 67] | 44000 | 39 | – | 8.1 | Antagonist | 55
COc1cc(CCC(C)(C)N2Cc3cccc(S(C)(=O)=O)c3C2)ccc1O [compound 64] | 20000 | 52 | – | 8.6 | Inactive | 180
COCCNC(=O)c1cccc2c1CN(C(C)(C)CCc1ccc(O)c(OC)c1)C2 [compound 84] | 6600 | 163 | 100000 | 10000 | – | 10000
CN(C)C(=O)c1cccc2c1CN(C(C)(C)CCc1ccc(O)c(OC(C)(C)C)c1)C2 [compound 59] | 18000 | 8 | – | 57 | Inactive | 10000
COc1cc(CCC(C)(C)N2Cc3cccc(F)c3C2)ccc1OCCO [compound 44] | 99 | 29 | – | 140 | Antagonist | 1300
CC(C)(C)Oc1cc(CCC(C)(C)N2Cc3cccc(S(C)(=O)=O)c3C2)ccc1O [compound 66] | 19000 | 10 | – | 2.6 | Inactive | 130
